In patent EP4778929A1, “NOVEL TYPE I TOPOISOMERASE INHIBITOR, AND PREPARATION METHOD THEREFOR AND USE THEREOF” (priority 2023, dated 2025):

system: HCT116 cells; test: Inhibition of cell proliferation by CTG (CellTiter-Glo) luminescence assay; assay type: cell-based; settings: Homo sapiens, HCT-116; 72 h incubation, CellTiter-Glo; read-out: HCT116, IC50
Source text: Test Example 2. Determination of Compound-Mediated Inhibition of Cell Proliferation by CTG (CellTiter-Glo) Luminescence Assay
Principle: The Promega CellTiter-Glo™ luciferase reagent was used. Luciferase consumes ATP to generate light; metabolically active cells continuously produce ATP through respiration and other processes. After adding an equal volume of CellTiter-Glo™ reagent to the culture medium, the resulting luminescence is directly proportional to the ATP content, which in turn correlates with the number of viable cells. Thus, the assay quantifies compound-induced suppression of cell proliferation.
Experimental Procedure: HCT116 cells (ATCC) were revived in complete medium (McCoy's 5a + 10 % FBS). After two passages, exponentially growing cells were harvested, counted, and resuspended to the appropriate density. A 100 µL aliquot of cell suspension (2 000 cells per well) was seeded into 96-well plates and incubated overnight (37 °C, 5 % CO2, 100 % relative humidity). Test compounds were dissolved in DMSO to prepare 10 mM stock solutions and serially diluted 1:3 in DMSO to generate nine concentration steps. Each DMSO solution was further diluted 200-fold into medium; 25 µL of the resulting solutions were added to the cell plates (final DMSO concentration […]). After 72 h incubation (37 °C, 5 % CO2), 50 µL of CellTiter-Glo reagent was added per well. Plates were shaken gently, incubated for 30 min at room temperature in the dark, and luminescence was read on an EnVision multimode reader. Percent inhibition was calculated as: Inhibition % = (1−As/Ac) × 100, [formula] where As = signal from compound-treated wells and Ac = signal from DMSO-only control wells. Concentration-response data were fitted in Excel with the XLfit add-in using the four-parameter logistic equation: Y = Bottom + (Top−Bottom)/[1+((IC50/X))^(∧)HillSlope], [formula] to derive the IC50 value for each compound. Table 2. IC50 of compounds

Structure (SMILES) | IC50
CC[C@@]1(O)C(=O)OCc2c1cc1n(c2=O)Cc2c-1c(=O)c1cc(F)ccc1n2[C@@H]1CCN(C2CC(C)(C)C2)C1 [Example 254, (S)-4-ethyl-8-fluoro-4-hydroxy-11-((R)-1-(3,3-dimethylcyclobutyl)pyrrolidin-3-yl)-1,12-dihydro-14H-pyrano[3',4':6,7]indolizino[2,1-b]quinoline-3,6,14(4H,11H)-trione] | < 20 nM
CC[C@@]1(O)C(=O)OCc2c1cc1n(c2=O)Cc2c-1c(=O)c1cc(F)c([C@H](O)C(F)(F)F)cc1n2C1CCCC1 (single isomer, unassigned) [Example 347] | < 20 nM
CCN1CC[C@@H](n2c3c(c(=O)c4cc(F)ccc42)-c2cc4c(c(=O)n2C3)COC(=O)[C@]4(O)CC)C1 [Example 251, (S)-4-ethyl-8-fluoro-4-hydroxy-11-((R)-1-ethylpyrrolidin-3-yl)-1,12-dihydro-14H-pyrano[3',4':6,7]indolizino[2,1-b] quinoline-3,6,14(4H,11H)-trione] | < 20 nM
CC[C@@]1(O)C(=O)OCc2c1cc1n(c2=O)Cc2c-1c(=O)c1cc(F)ccc1n2[C@@H]1CCN(C2CC(F)(F)C2)C1 [Example 255, (S)-4-ethyl-8-fluoro-4-hydroxy-11-((R)-1-(3,3-difluorocyclobutyl)pyrrolidin-3-yl)-1,12-dihydro-14H-pyrano[3',4':6,7]indolizino[2,1-b]quinoline-3,6,14(4H,11H)-trione] | < 20 nM
CC[C@@]1(O)C(=O)OCc2c1cc1n(c2=O)Cc2c-1c(=O)c1cc(F)ccc1n2C[C@H]1CCN(C(C)C)C1 [Example 404] | < 20 nM
CCC1(O)C(=O)OCc2c1cc1n(c2=O)Cc2c-1c(=O)c1cc(F)c(CO)cc1n2C12CC(C1)C2 (stereo not drawn) [Example 327] | < 20 nM
CC[C@@]1(O)C(=O)OCc2c1cc1n(c2=O)Cc2c-1c(=O)c1cc(F)c(Cl)cc1n2[C@@H]1CCN(C)C1 [Example 283] | < 20 nM
CC[C@@]1(O)C(=O)OCc2c1cc1n(c2=O)Cc2c-1c(=O)c1cc(F)c(N)cc1n2C12CC(C1)C2 [Example 359] | < 20 nM
CC[C@@]1(O)C(=O)OCc2c1cc1n(c2=O)Cc2c-1c(=O)c1cc(F)c(C)cc1n2[C@@H]1CCN(C2CC(F)(F)C2)C1 [Example 280] | < 20 nM
CC[C@@]1(O)C(=O)OCc2c1cc1n(c2=O)Cc2c-1c(=O)c1cc(F)c(CO)cc1n2C1CC2(CCC2)C1 [Example 312] | < 20 nM
CC[C@@]1(O)C(=O)OCc2c1cc1n(c2=O)Cc2c-1c(=O)c1cc(F)ccc1n2[C@H]1CCCN(C2CC(F)(F)C2)C1 [Example 372] | < 20 nM
CC[C@@]1(O)C(=O)OCc2c1cc1n(c2=O)Cc2c-1c(=O)c1cc(F)c(N)cc1n2-c1cc(C)cc(C)c1 [Example 350] | < 20 nM
CC[C@@]1(O)C(=O)OCc2c1cc1n(c2=O)Cc2c-1c(=O)c1cc(F)ccc1n2[C@@H]1CCN(C2CC3(CC3)C2)C1 [Example 271, (S)-4-ethyl-8-fluoro-4-hydroxy-11-((R)-1-(spiro[2.3]hexan-5-yl)pyrrolidin-3-yl)-1H-pyrano[3',4':6,7]indolizino[2,1-b]quinoline-3,6,14(4H,11H,12H)-trione] | < 20 nM
CC[C@@]1(O)C(=O)OCc2c1cc1n(c2=O)Cc2c-1c(=O)c1cc(F)ccc1n2[C@@H]1CCCN(C2CCCC2)C1 [Example 370] | < 20 nM
CC[C@@]1(O)C(=O)OCc2c1cc1n(c2=O)Cc2c-1c(=O)c1cc(F)c(CC(C)O)cc1n2C1CCC(C)(C)CC1 (stereo partly drawn) [Example 317] | < 20 nM
CC[C@@]1(O)C(=O)OCc2c1cc1n(c2=O)Cc2c-1c(=O)c1cc(F)c(N)cc1n2C1CC2(CCC2)C1 [Example 358] | < 20 nM
CCCN1CC[C@@H](n2c3c(c(=O)c4cc(F)ccc42)-c2cc4c(c(=O)n2C3)COC(=O)[C@]4(O)CC)C1 [Example 258, (S)-4-ethyl-8-fluoro-4-hydroxy-11-((R)-1-n-propylpyrrolidin-3-yl)-1,12-dihydro-14H-pyrano[3',4':6,7]indolizino[2,1-b] quinoline-3,6,14(4H,11H)-trione] | < 20 nM
CC[C@@]1(O)C(=O)OCc2c1cc1n(c2=O)Cc2c-1c(=O)c1cc(F)c(Cl)cc1n2[C@@H]1CCN(C2CCC2)C1 [Example 282] | < 20 nM
CC[C@@]1(O)C(=O)OCc2c1cc1n(c2=O)Cc2c-1c(=O)c1cc(F)ccc1n2[C@@H]1CCN(C2CC2)C1 [Example 274, (4S)-11-((3R)-1-cyclopropylpyrrolidin-3-yl)-4-ethyl-8-fluoro-4-hydroxy-1H-pyrano[3',4':6,7]indolizino[2,1-b]quinoline-3,6,14(4H,11H,12H)-trione] | < 20 nM
CC[C@@]1(O)C(=O)OCc2c1cc1n(c2=O)Cc2c-1c(=O)c1cc(F)ccc1n2[C@@H]1CCN(C2CCC(F)(F)CC2)C1 [Example 267, (S)-11-((R)-1-(4,4-difluorocyclohexyl)pyrrolidin-3-yl)-4-ethyl-8-fluoro-4-hydroxy-1H-pyrano[3,4:6,7]indolizino[2,1-b]quinoline-3,6,14(4H,11H,12H)-trione] | < 20 nM
CC[C@@]1(O)C(=O)OCc2c1cc1n(c2=O)Cc2c-1c(=O)c1cc(F)ccc1n2[C@@H]1CCN(CC(C)C)C1 [Example 260, (S)-4-ethyl-8-fluoro-4-hydroxy-11-((R)-1-isobutylpyrrolidin-3-yl)-1H-pyrano[3',4':6,7]indolizino[2,1-b]quinoline-3,6,14 (4H,11H,12H)-trione] | < 20 nM
CC[C@@]1(O)C(=O)OCc2c1cc1n(c2=O)Cc2c-1c(=O)c1cc(F)c(F)cc1n2[C@@H]1CCN(C)C1 [Example 277] | < 20 nM
CCC(CC)N1CC[C@@H](n2c3c(c(=O)c4cc(F)ccc42)-c2cc4c(c(=O)n2C3)COC(=O)[C@]4(O)CC)C1 [Example 261, (S)-4-ethyl-8-fluoro-4-hydroxy-11-((R)-1-(pentan-3-yl)pyrrolidin-3-yl)-1H-pyrano[3,4:6,7]indolizino[2,1-b]quinoline-3,6,14 (4H,11H,12H)-trione] | < 20 nM
CC[C@@]1(O)C(=O)OCc2c1cc1n(c2=O)Cc2c-1c(=O)c1cc(F)ccc1n2[C@@H]1CCN(C2CC3CC3C2)C1 (stereo partly drawn) [Example 273, (4S)-11-((3R)-1-(bicyclo[3.1.0]hexan-3-yl)pyrrolidin-3-yl)-4-ethyl-8-fluoro-4-hydroxy-1H-pyrano[3',4':6,7]indolizino[2,1-b]quinoline-3,6,14(4H,11H,12H)-trione] | < 20 nM
CC[C@@]1(O)C(=O)OCc2c1cc1n(c2=O)Cc2c-1c(=O)c1cc(F)ccc1n2C[C@H]1CCN(C2CC(F)(F)C2)C1 [Example 402] | < 20 nM
CC[C@@]1(O)C(=O)OCc2c1cc1n(c2=O)Cc2c-1c(=O)c1cc(F)ccc1n2[C@@H]1CCN(C2CC3(CCC3)C2)C1 [Example 270, (S)-4-ethyl-8-fluoro-4-hydroxy-11-((R)-1-(spiro[3.3]heptan-2-yl)pyrrolidin-3-yl)-1H-pyrano[3,4:6,7]indolizino[2,1-b] quinoline-3,6,14(4H,11H,12H)-trione] | < 20 nM
CC[C@@]1(O)C(=O)OCc2c1cc1n(c2=O)Cc2c-1c(=O)c1cc(F)ccc1n2[C@@H]1CCN(C(C)C)C1 [Example 263, (S)-4-ethyl-8-fluoro-4-hydroxy-11-((R)-1-isopropylpyrrolidin-3-yl)-1H-pyrano[3,4:6,7]indolizino[2,1-b]quinoline-3,6,14 (4H,11H,12H)-trione] | < 20 nM
